Experimental data taken from publication PMC8047747 (ACS Omega, 2021).
Converted amounts (≈) assume the structure as drawn. Read-outs that look alike come from different tables or passages of the source.

Assays:
[1] = test system: Mycobacterium tuberculosis H37Rv (ATCC27294); test: microbe, parasite or virus in culture; type: cell-based
[2] = test system: mouse macrophage RAW 264.7 cells
[3] = in vitro; conditions: mouse
[4] = test system: M. tuberculosis H37Rv nutrient-starved culture; type: cell-based, Mycobacterium tuberculosis
[5] = Mycobacterium tuberculosis, ATCC27294|H37RV
[6] = RAW 264.7 cells, 50 μg/mL, 48 hr, MTT

O=[N+]([O-])c1ccc(S(=O)(=O)N2CCN(C(c3ccccc3)c3ccccc3)CC2)c([N+](=O)[O-])c1 [7a, 1-Benzhydryl-4-((2,4-dinitrophenyl)sulfonyl)piperazine]
MIC ([1]; Mtb H37Rv, repeated in Table 2): 1.56 µg/mL (≈ 3.23 µM) | MIC [1, 5]: 1.56 µg/mL (≈ 3.23 µM) | % cell inhibition at 50 μg/mL [2, 6]: 57.6% | IC50 [3]: > 50 µg/mL

O=C(CCCNS(=O)(=O)c1ccc([N+](=O)[O-])cc1[N+](=O)[O-])N1CCN(C(c2ccc(F)cc2)c2ccc(F)cc2)CC1 [7aa, N-(4-(4-(Bis(4-fluorophenyl)methyl)piperazin-1-yl)-4-oxobutyl)-2,4-dinitrobenzene Sulfonamide]
MIC ([1]; Mtb H37Rv, repeated in Table 2): 0.78 µg/mL (≈ 1.29 µM) | MIC [1, 5]: 0.78 µg/mL (≈ 1.29 µM) | % cell inhibition at 50 μg/mL [2, 6]: 59.2% | IC50 [3]: > 50 µg/mL

O=[N+]([O-])c1ccccc1S(=O)(=O)N1CCN(C(c2ccccc2)c2ccccc2)CC1 [7b, 1-Benzhydryl-4-((2-nitrophenyl)sulfonyl)piperazine]
MIC [1, 5]: > 25 µg/mL

O=[N+]([O-])c1ccc(S(=O)(=O)N2CCN(C(c3ccccc3)c3ccccc3)CC2)cc1 [7c, 1-Benzhydryl-4-((4-nitrophenyl)sulfonyl)piperazine]
MIC [1, 5]: > 25 µg/mL

O=[N+]([O-])c1ccc(S(=O)(=O)N2CCN(C(c3ccc(F)cc3)c3ccc(F)cc3)CC2)c([N+](=O)[O-])c1 [7d, 1-(Bis(4-fluorophenyl)methyl)-4-((2,4-dinitrophenyl)sulfonyl)piperazine]
MIC [1, 5]: > 25 µg/mL

O=[N+]([O-])c1ccccc1S(=O)(=O)N1CCN(C(c2ccc(F)cc2)c2ccc(F)cc2)CC1 [7e, 1-(Bis(4-fluorophenyl)methyl)-4-((2-nitrophenyl)sulfonyl)piperazine]
MIC [1, 5]: > 25 µg/mL

O=[N+]([O-])c1ccc(S(=O)(=O)N2CCN(C(c3ccc(F)cc3)c3ccc(F)cc3)CC2)cc1 [7f, 1-(Bis(4-fluorophenyl)methyl)-4-((4-nitrophenyl)sulfonyl)piperazine]
MIC [1, 5]: > 25 µg/mL

O=C(CNS(=O)(=O)c1ccc([N+](=O)[O-])cc1[N+](=O)[O-])N1CCN(C(c2ccccc2)c2ccccc2)CC1 [7g, N-(2-(4-Benzhydrylpiperazin-1-yl)-2-oxoethyl)-2,4-dinitrobenzenesulfonamide]
MIC [1, 5]: 12.5 µg/mL (≈ 23.2 µM)

O=C(CCNS(=O)(=O)c1ccc([N+](=O)[O-])cc1[N+](=O)[O-])N1CCN(C(c2ccccc2)c2ccccc2)CC1 [7k, N-(3-(4-Benzhydrylpiperazin-1-yl)-3-oxopropyl)-2,4-dinitrobenzenesulfonamide]
MIC ([1]; Mtb H37Rv, repeated in Table 2): 0.78 µg/mL (≈ 1.41 µM) | MIC [1, 5]: 0.78 µg/mL (≈ 1.41 µM) | % cell inhibition at 50 μg/mL [2, 6]: 61.4% | IC50 [3]: > 50 µg/mL

O=C(CCNS(=O)(=O)c1ccc([N+](=O)[O-])cc1[N+](=O)[O-])N1CCN(C(c2ccc(F)cc2)c2ccc(F)cc2)CC1 [7l, N-(3-(4-(Bis(4-fluorophenyl)methyl)piperazin-1-yl)-3-oxopropyl)-2,4-dinitrobenzene Sulfonamide]
MIC ([1]; Mtb H37Rv, repeated in Table 2): 0.78 µg/mL (≈ 1.32 µM) | MIC [1, 5]: 0.78 µg/mL (≈ 1.32 µM) | % cell inhibition at 50 μg/mL [2, 6]: 60.2% | IC50 [3]: > 50 µg/mL

O=C(C1CCN(S(=O)(=O)c2ccc([N+](=O)[O-])cc2[N+](=O)[O-])CC1)N1CCN(C(c2ccccc2)c2ccccc2)CC1 [7o, (4-Benzhydrylpiperazin-1-yl) (1-((2,4-dinitrophenyl)sulfonyl)piperidin-4-yl)methanone]
MIC ([1]; Mtb H37Rv, repeated in Table 2): 0.78 µg/mL (≈ 1.31 µM) | MIC [1, 5]: 0.78 µg/mL (≈ 1.31 µM) | % cell inhibition at 50 μg/mL [2, 6]: 57.2% | IC50 [3]: > 50 µg/mL

O=C(C1CCN(S(=O)(=O)c2ccccc2[N+](=O)[O-])CC1)N1CCN(C(c2ccccc2)c2ccccc2)CC1 [7p, (4-Benzhydrylpiperazin-1-yl) (1-((2-Nitrophenyl)sulfonyl)piperidin-4-yl)methanone]
MIC [1, 5]: > 25 µg/mL

O=C(C1CCN(S(=O)(=O)c2ccc([N+](=O)[O-])cc2)CC1)N1CCN(C(c2ccccc2)c2ccccc2)CC1 [7q, (4-Benzhydrylpiperazin-1-yl) (1-((4-Nitrophenyl)sulfonyl)piperidin-4-yl)methanone]
MIC [1, 5]: > 25 µg/mL

O=C(C1CCN(S(=O)(=O)c2ccc([N+](=O)[O-])cc2[N+](=O)[O-])CC1)N1CCN(C(c2ccc(F)cc2)c2ccc(F)cc2)CC1 [7r, (4-(Bis(4-fluorophenyl)methyl)piperazin-1-yl) (1-((2,4-Nitrophenyl)sulfonyl)piperidin-4-yl)methanone]
MIC [1]: 1.56 µg/mL (≈ 2.48 µM) | nutrient starvation (log reduction) [4]: 2.2 folds | % cell inhibition at 50 μg/mL [2]: 57.2% | IC50 approximation [2]: >50 µg/mL

O=C(C1CCCN(S(=O)(=O)c2ccc([N+](=O)[O-])cc2[N+](=O)[O-])C1)N1CCN(C(c2ccccc2)c2ccccc2)CC1 (stereo not shown) [7s, (4-Benzhydrylpiperazin-1-yl) (1-((2,4-Dinitrophenyl)sulfonyl)piperidin-3-yl)methanone]
MIC ([1]; Mtb H37Rv, repeated in Table 2): 0.78 µg/mL (≈ 1.31 µM) | MIC [1, 5]: 0.78 µg/mL (≈ 1.31 µM) | % cell inhibition at 50 μg/mL [2, 6]: 59.2% | IC50 [3]: > 50 µg/mL

O=C(C1CCCN(S(=O)(=O)c2ccccc2[N+](=O)[O-])C1)N1CCN(C(c2ccccc2)c2ccccc2)CC1 (stereo not shown) [7t, (4-Benzhydrylpiperazin-1-yl) (1-((2-Nitrophenyl)sulfonyl)piperidin-3-yl)methanone]
MIC [1, 5]: > 25 µg/mL

O=C(C1CCCN(S(=O)(=O)c2ccc([N+](=O)[O-])cc2)C1)N1CCN(C(c2ccccc2)c2ccccc2)CC1 (stereo not shown) [7u, (4-Benzhydrylpiperazin-1-yl) (1-((4-Nitrophenyl)sulfonyl)piperidin-3-yl)methanone]
MIC [1, 5]: > 25 µg/mL

O=C(C1CCCN(S(=O)(=O)c2ccc([N+](=O)[O-])cc2[N+](=O)[O-])C1)N1CCN(C(c2ccc(F)cc2)c2ccc(F)cc2)CC1 (stereo not shown) [7v, (4-(Bis(4-fluorophenyl)methyl)piperazin-1-yl) (1-((2,4-Dinitrophenyl)sulfonyl)piperidin-3-yl)methanone]
MIC ([1]; Mtb H37Rv, repeated in Table 2): 0.78 µg/mL (≈ 1.24 µM) | MIC [1, 5]: 0.78 µg/mL (≈ 1.24 µM) | % cell inhibition at 50 μg/mL [2, 6]: 55.7% | IC50 [3]: > 50 µg/mL

O=C(C1CCN(S(=O)(=O)c2ccc([N+](=O)[O-])cc2[N+](=O)[O-])C1)N1CCN(C(c2ccccc2)c2ccccc2)CC1 (stereo not shown) [7y, (4-Benzhydrylpiperazin-1-yl) (1-((2,4-Dinitrophenyl)sulfonyl)pyrrolidin-3-yl)methanone]
MIC ([1]; Mtb H37Rv, repeated in Table 2): 0.78 µg/mL (≈ 1.35 µM) | MIC [1, 5]: 0.78 µg/mL (≈ 1.35 µM) | % cell inhibition at 50 μg/mL [2, 6]: 59.6% | IC50 [3]: > 50 µg/mL

CC[C@@H](CO)NCCN[C@@H](CC)CO [Ethambutol, reference compound]
MIC [1, 5]: 1.56 µg/mL (≈ 7.64 µM)

NNC(=O)c1ccncc1 [Isoniazid, reference compound]
MIC ([1]; Mtb H37Rv, repeated in Table 2): 0.05 µg/mL (≈ 0.365 µM) | % cell inhibition at 50 μg/mL [2, 6]: 97% | IC50 [3]: > 25 µg/mL

CO[C@H]1/C=C/O[C@@]2(C)Oc3c(C)c(O)c4c(O)c(c(/C=N/N5CCN(C)CC5)c(O)c4c3C2=O)NC(=O)/C(C)=C\C=C\[C@H](C)[C@H](O)[C@@H](C)[C@@H](O)[C@@H](C)[C@H](OC(C)=O)[C@@H]1C [Rifampicin, reference compound]
MIC ([1]; Mtb H37Rv strain, triplicate, Table 1 and text): 0.10 µg/mL (≈ 0.122 µM) | MIC ([1]; Mtb H37Rv, repeated in Table 2): 0.1 µg/mL (≈ 0.122 µM) | MIC [1, 5]: 0.1 µg/mL (≈ 0.122 µM) | % cell inhibition at 50 μg/mL [2, 6]: 90% | IC50 [3]: > 25 µg/mL
